# Laboratory results: US10039729B2, “Use of kukoamine A and kukoamine B” (Tianjin Chase Sun Pharmaceutical Co., Ltd., priority 2010, dated 2018)
# What was measured:
# RAW264.7 cells [1] = assay: Binding and cellular internalization of LPS and CpG DNA to RAW264.7 cells (confocal microscopy); format: cell-based, murine; conditions: KB 50, 100 and 200 μM, dose-dependent
# Description: 21.1 Methods: RAW264.7 cells were cultured in 20 mm cell culture dishes for confocal microscopy applications, and diluted to 5×10^5/ml in DMEM supplemented with 10% (v/v) NCS; 1 ml of the above suspension was transferred into each cell culture dishes and cultured at 37° C. in a 5% CO2 humidified incubator for 4 h; for the purpose of experiment three groups were established, medium group, stimulation group and KB treatment group; the concentration and loading patterns of each group were consistent with Embodiment 12; the cells were then fixed with 4% paraform for 10 min after 30 min of culture, and washed thrice with PBS; nucleus were stained with DAPI (100 ng·mL^−1) for 2 min, washed with PBS thrice, mounted with a solution of 50% glycerol and 50% PBS, and stored in dark place until intensity and distribution of fluorescence of LPS and CpG DNA on RAW264.7 cells surface were observed under a confocal microscopy.
# [2] = test system: murine peritoneal macrophages; assay: mRNA expression of TNF-α and IL-6 in murine peritoneal macrophages stimulated by LPS and CpG DNA; format: cell-based; conditions: 100, 200 μM, dose-dependent
# Source text: 16.1 Methods: Influence of KB on the mRNA expression of TNF-α and IL-6 in murine peritoneal macrophages stimulated by LPS and CpG DNA was observed. Methods were the same as embodiment 15.
# [3] = test system: murine peritoneal macrophages; assay: Vitality of murine peritoneal macrophages (MTT method); format: cell-based; conditions: KB or KB plus LPS or CpG DNA; 24 h
# Description: (2) Influence on vitality of murine peritoneal macrophages: Experiment methods are as above. Influences of the combination of KB with LPS or CpG DNA on vitality of murine peritoneal macrophages were assayed.
# RAW264.7 cells [4] = assay: Semi-quantitative RT-PCR of TLR4, TLR9, MyD88 and western blot of NF-κB p65 in RAW264.7 cells; format: cell-based, murine; conditions: KB 200 μM
# Description: Reaction mixtures were added into 0.2 ml PCR tubes. The reaction mixture included 1 μl cDNA, 10.0 μl 2×Taq Master Mix, 1 μl upstream primer (10 μM), 1 μl downstream primer (10 μM) and 7 μl RNase-free H2O. PCR programs are as follows:
# Finally, the PCR products were detected by agarose gel electrophoresis; 1% agarose gel was prepared and cast; 5 μl PCR products of each tube were loaded, electrophoresed at 100 v for 30 min; then gel was took out and scanned; the images were analysed by Quantity One software.
# (2) Inhibition of KB on activation of NF-κB p65 in RAW264.7 cells induced by LPS and CpG DNA: Methods are as above; nucleoprotein extraction continued to be incubated for 1 h after sample loading; then, NF-κB p65 in it was assayed using westernblot; the procedure of nucleoprotein extraction and westernblot were consistent with embodiment 23.
# [5] = Major organ pathological morphous of mice after KB injection; format: in vivo, Kunming mice; conditions: KB 60 mg/kg single dose; 24, 48 and 72 h
# Description: 30.1 Methods: A total of 16 Kunming mice were randomly divided into four groups; each group has 4 mice, half male and half female; for the purpose of experiment a medium group and a KB (60 mg/kg) treatment group were established; mice in medium group were immediately killed by cervical dislocation, and KB treatment group were killed separately killed at 24, 48 and 72 h after injection; the cavitas thoracis and abdominal cavity of mice were cut open; organs such as heart, liver, lung, kidney and intestine were moved out, rinsed with sterile saline, plunged into 10% formaldehyde solution for fixing, dehydrated, embedded in paraffin, HE dyed and mounted; organ histopathological changes were observed under a light microscope.
structure (smiles),measurement,setting,value
"NCCCN(CCCCNCCCNC(=O)CCc1ccc(O)c(O)c1)C(=O)CCc1ccc(O)c(O)c1 [KB, Kukoamine B]",green fluorescence intensity of 5-FAM (CpG DNA) on the surface of and inside RAW264.7 cells,RAW264.7 cells [1]; 5-FAM-CpG DNA 10 μg/ml,significantly weakened
same,green fluorescence intensity of FITC (LPS) on the surface of and inside RAW264.7 cells,RAW264.7 cells [1]; FITC-LPS 200 ng/ml,significantly weakened
same,mRNA expressions of TNF-α and IL-6 up-regulated by CpG DNA,[2],significantly inhibit the mRNA expressions
same,mRNA expressions of TNF-α and IL-6 up-regulated by LPS,[2],significantly inhibit the mRNA expressions
same,vitality of murine peritoneal macrophages,[3],The same result was also obtained
same,"up-regulated expression of TLR4, TLR9 and MyD88 stimulated by LPS and CpG DNA","RAW264.7 cells [4]; 4 h, semi-quantitative RT-PCR",inhibited up-regulated expression
same,up-regulation of NF-κB p65 in RAW264.7 cell nucleus induced by LPS and CpG DNA,"RAW264.7 cells [4]; LPS 100 ng/ml, CpG DNA 10 μg/ml, western blot",inhibit the up-regulation of NF-κB p65
same,cardiac muscle histopathology,[5],no cell necrosis and inflammatory cell infiltration
same,changes in major organs of mice,[5],no significant changes in major organs
same,kidney histopathology,[5],normal morphology and no obvious changes
same,liver histopathology,[5],no pathological changes such as cellular swelling and necrosis
same,lung histopathology,[5],no congestion and inflammatory cell infiltration
